Experimental findings from patent publication US20250388589A1, “TRICYCLIC HETEROCYCLIC DERIVATIVES, COMPOSITIONS AND USES THEREOF” (Danatlas Pharmaceuticals Co., Ltd., priority 2022, published 2025) are described below.

Experiment [1] has as its target hPARG (C-terminal His6-tag) (Homo sapiens (Human), UniProt Q86W56). Description: PARG Enzymatic Activity Assay (HTRF). As to conditions: hPARG 65 pM final, biotinylated-NAD ribosylated PARP1 8 nM final. It counts as biochemical. An outline of the steps:
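E. coli-expressed enzyme (65 pM final) preincubated 60 min RT with compounds (10-point 4-fold dilution, duplicate) in 50 mM Tris pH 7.4, 3 mM EDTA, 1 mM DTT, 50 mM KCl, 0.01% Tween 20. Biotinylated-NAD ribosylated PARP1 substrate (8 nM final) reacted 10 min RT; Eu-streptavidin/anti-6HIS-XL665 HTRF read 665/620 nm after 60 min. IC50 from 4-parameter Hill fit.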
For orientation: In TR-FRET formats the signal depends on donor and acceptor labels being close together.

The subject of another experiment is Kuramochi cell line. Description: Cell Viability Assay (Cell Titer-Glo, 7 days). To be noted: 168 h, Kuramochi cells, 7 days incubation, read-out: PARG Cell viability (IC50). It counts as cell-based. In short, it runs like this: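 Kuramochi cells in RPMI with 10% FBS, seeded at 400 cells/well, were treated with a 9-point 3-fold dilution series in duplicate for 7 days at 37 °C, 5% CO2. Viability by CellTiter-Glo luminescence, normalised to DMSO and medium-only controls; IC50 from 4-parameter Hill fit.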
On the technique in general: ATP-based viability assays read luminescence as a measure of living cells.

SMILES strings stand for the structures.

Chain of hPARG (C-terminal His6-tag) (Q86W56 whole entry): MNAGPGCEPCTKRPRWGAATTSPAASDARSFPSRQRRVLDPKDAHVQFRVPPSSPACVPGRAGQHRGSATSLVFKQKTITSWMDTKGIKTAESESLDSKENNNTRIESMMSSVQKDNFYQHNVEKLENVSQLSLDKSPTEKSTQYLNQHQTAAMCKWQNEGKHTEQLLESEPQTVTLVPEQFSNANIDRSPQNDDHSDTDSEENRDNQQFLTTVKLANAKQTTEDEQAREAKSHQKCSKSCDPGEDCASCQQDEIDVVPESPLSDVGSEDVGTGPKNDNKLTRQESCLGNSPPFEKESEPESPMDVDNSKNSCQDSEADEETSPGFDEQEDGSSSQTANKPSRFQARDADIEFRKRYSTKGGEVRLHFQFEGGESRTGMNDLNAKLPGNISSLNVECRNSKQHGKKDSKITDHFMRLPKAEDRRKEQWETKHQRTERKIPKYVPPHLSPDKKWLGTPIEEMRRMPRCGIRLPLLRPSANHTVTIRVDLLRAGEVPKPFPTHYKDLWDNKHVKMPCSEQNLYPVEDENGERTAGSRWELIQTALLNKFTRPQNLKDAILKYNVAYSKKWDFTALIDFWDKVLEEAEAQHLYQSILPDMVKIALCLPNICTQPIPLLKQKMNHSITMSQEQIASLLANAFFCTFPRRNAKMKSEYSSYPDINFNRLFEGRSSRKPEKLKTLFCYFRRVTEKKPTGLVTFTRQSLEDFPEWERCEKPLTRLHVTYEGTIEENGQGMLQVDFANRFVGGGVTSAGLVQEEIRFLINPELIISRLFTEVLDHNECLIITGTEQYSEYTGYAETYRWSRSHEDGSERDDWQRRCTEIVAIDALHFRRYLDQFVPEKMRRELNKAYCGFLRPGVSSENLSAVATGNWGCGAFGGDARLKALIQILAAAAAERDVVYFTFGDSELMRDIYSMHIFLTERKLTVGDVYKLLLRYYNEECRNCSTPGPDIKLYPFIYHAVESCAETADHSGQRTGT

A word on the IC50: it is the point on the concentration scale where inhibition reaches its midpoint. On to `CC(C)C(=O)N1CC=C(c2ccnc3c2c2ccc(S(=O)(=O)NC4(C#N)CC4)cc2n3-c2nnc(C(F)F)s2)CC1` [Example 196, N-(1-Cyanocyclopropyl)-9-(5-(difluoromethyl)-1,3,4-thiadiazol-2-yl)-4-(1-isobutyryl-1,2,3,6-tetrahydropyridin-4-yl)-9H-pyrido[2,3-b]indole-7-sulfonamide], for which the results for the IC50 (in experiment [1]; with Kuramochi cell line) were below 100 nM and 100 to 1000 nM, respectively.
On to `CC(C)C(=O)N1CCC(c2ccnc3c2c2ccc(S(=O)(=O)NC4(C#N)CC4)cc2n3-c2nnc(C(F)F)s2)CC1` [Example 197, N-(1-Cyanocyclopropyl)-9-(5-(difluoromethyl)-1,3,4-thiadiazol-2-yl)-4-(1-isobutyrylpiperidin-4-yl)-9H-pyrido[2,3-b]indole-7-sulfonamide], for which the IC50 is below 100 nM in experiment [1] and 100 to 1000 nM with Kuramochi cell line.
For the molecule `CN1CCN(c2ccnc3c2c2ccc(S(=O)(=O)NC4(C#N)CC4)cc2n3-c2nnc(C(F)F)s2)CC1` [Example 198, N-(1-Cyanocyclopropyl)-9-(5-(difluoromethyl)-1,3,4-thiadiazol-2-yl)-4-(4-methylpiperazin-1-yl)-9H-pyrido[2,3-b]indole-7-sulfonamide], the IC50 (in experiment [1]; in the experiment on Kuramochi cell line) was below 100 nM each time.
For `C[C@@H]1COCCN1c1ncnc2c1c1ccc(S(=O)(=O)NC3(C#N)CC3)cc1n2-c1nnc(C(F)F)s1` [Example 199, (R)—N-(1-Cyanocyclopropyl)-9-(5-(difluoromethyl)-1,3,4-thiadiazol-2-yl)-4-(3-methylmorpholino)-9H-pyrimido[4,5-b]indole-7-sulfonamide], the IC50 (in experiment [1]; in the experiment with Kuramochi cell line) was below 100 nM in each case.
Regarding `C[C@@H]1CO[C@@H](C)CN1c1ncnc2c1c1ccc(S(=O)(=O)NC3(C#N)CC3)cc1n2-c1nnc(C(F)F)s1` [Example 200, N-(1-Cyanocyclopropyl)-9-(5-(difluoromethyl)-1,3,4-thiadiazol-2-yl)-4-((2S,5R)-2,5-dimethylmorpholino)-9H-pyrimido[4,5-b]indole-7-sulfonamide], the IC50 (in experiment [1]; in the experiment on Kuramochi cell line) was below 100 nM in each case.
Turning to `N#CC1(NS(=O)(=O)c2ccc3c4c(N5CC6CCC(C5)O6)ncnc4n(-c4nnc(C(F)F)s4)c3c2)CC1` [Example 201, 4-(8-Oxa-3-azabicyclo[3.2.1]octan-3-yl)-N-(1-cyanocyclopropyl)-9-(5-(difluoromethyl)-1,3,4-thiadiazol-2-yl)-9H-pyrimido[4,5-b]indole-7-sulfonamide], the half-maximal inhibitory concentration (IC50) (in experiment [1]; with Kuramochi cell line) was below 100 nM throughout.
`N#CC1(NS(=O)(=O)c2ccc3c4c(N5C[C@H]6C[C@@H]5CO6)ncnc4n(-c4nnc(C(F)F)s4)c3c2)CC1` [Example 202, 4-((1R,4R)-2-Oxa-5-azabicyclo[2.2.1]heptan-5-yl)-N-(1-cyanocyclopropyl)-9-(5-(difluoromethyl)-1,3,4-thiadiazol-2-yl)-9H-pyrimido[4,5-b]indole-7-sulfonamide]: the IC50 (in experiment [1]; in the experiment with Kuramochi cell line) was below 100 nM in each case.
For `CN1CCN(c2ncnc3c2c2ccc(S(=O)(=O)NC4(C#N)CC4)cc2n3-c2nnc(C(F)F)s2)C[C@@H]1CF` [Example 203, (R)—N-(1-Cyanocyclopropyl)-9-(5-(difluoromethyl)-1,3,4-thiadiazol-2-yl)-4-(3-(fluoromethyl)-4-methylpiperazin-1-yl)-9H-pyrimido[4,5-b]indole-7-sulfonamide], the IC50 (in experiment [1]; in the experiment with Kuramochi cell line) was below 100 nM in each case.
Take `COC[C@H]1CN(c2ncnc3c2c2ccc(S(=O)(=O)NC4(C#N)CC4)cc2n3-c2nnc(C(F)F)s2)CCN1C` [Example 204, (R)—N-(1-Cyanocyclopropyl)-9-(5-(difluoromethyl)-1,3,4-thiadiazol-2-yl)-4-(3-(methoxymethyl)-4-methylpiperazin-1-yl)-9H-pyrimido[4,5-b]indole-7-sulfonamide]: the IC50 (in experiment [1]; with Kuramochi cell line) was below 100 nM each time.
As for `C[C@H]1CN(c2ncnc3c2c2ccc(S(=O)(=O)NC4(C#N)CC4)cc2n3-c2nnc(C(F)F)s2)CCN1CC#N` [Example 205, (S)—N-(1-Cyanocyclopropyl)-4-(4-(cyanomethyl)-3-methylpiperazin-1-yl)-9-(5-(difluoromethyl)-1,3,4-thiadiazol-2-yl)-9H-pyrimido[4,5-b]indole-7-sulfonamide], the IC50 (in experiment [1]; in the experiment on Kuramochi cell line) was below 100 nM each time.
On to `CCN(CC)C1CCN(c2ncnc3c2c2ccc(S(=O)(=O)NC4(C#N)CC4)cc2n3-c2nnc(C(F)F)s2)C[C@@H]1F` (stereo partly drawn) [Example 206, N-(1-Cyanocyclopropyl)-4-((3S)-4-(diethylamino)-3-fluoropiperidin-1-yl)-9-(5-(difluoromethyl)-1,3,4-thiadiazol-2-yl)-9H-pyrimido[4,5-b]indole-7-sulfonamide], for which the IC50 (in experiment [1]; in the experiment with Kuramochi cell line) was below 100 nM in each case.
As to `N#CC1(NS(=O)(=O)c2ccc3c4c(N5CCC(N6CCCC6)[C@@H](F)C5)ncnc4n(-c4nnc(C(F)F)s4)c3c2)CC1` (stereo partly drawn) [Example 207, N-(1-Cyanocyclopropyl)-9-(5-(difluoromethyl)-1,3,4-thiadiazol-2-yl)-4-((3S)-3-fluoro-4-(pyrrolidin-1-yl)piperidin-1-yl)-9H-pyrimido[4,5-b]indole-7-sulfonamide], the IC50 (in experiment [1]; with Kuramochi cell line) was below 100 nM in each case.
Turning to `N#CC1(NS(=O)(=O)c2ccc3c4c(N5CCC(N6CCC6)[C@@H](F)C5)ncnc4n(-c4nnc(C(F)F)s4)c3c2)CC1` (stereo partly drawn) [Example 208, 4-((3S)-4-(Azetidin-1-yl)-3-fluoropiperidin-1-yl)-N-(1-cyanocyclopropyl)-9-(5-(difluoromethyl)-1,3,4-thiadiazol-2-yl)-9H-pyrimido[4,5-b]indole-7-sulfonamide], the IC50 (in experiment [1]; in the experiment on Kuramochi cell line) was below 100 nM throughout.
Take `N#CC1(NS(=O)(=O)c2ccc3c4c(N5CCC(N6CCOCC6)[C@@H](F)C5)ncnc4n(-c4nnc(C(F)F)s4)c3c2)CC1` (stereo partly drawn) [Example 209, N-(1-Cyanocyclopropyl)-9-(5-(difluoromethyl)-1,3,4-thiadiazol-2-yl)-4-((3S)-3-fluoro-4-morpholinopiperidin-1-yl)-9H-pyrimido[4,5-b]indole-7-sulfonamide]: the IC50 (in experiment [1]; in the experiment with Kuramochi cell line) was below 100 nM in each case.
Take `N#CC1(NS(=O)(=O)c2ccc3c4c(N5C6CCC5COC6)ncnc4n(-c4nnc(C(F)F)s4)c3c2)CC1` [Example 210, 4-(3-Oxa-8-azabicyclo[3.2.1]octan-8-yl)-N-(1-cyanocyclopropyl)-9-(5-(difluoromethyl)-1,3,4-thiadiazol-2-yl)-9H-pyrimido[4,5-b]indole-7-sulfonamide]: the IC50 (in experiment [1]; with Kuramochi cell line) was below 100 nM in each case.
